Test results reported in patent US6743940B2, “4-aminobut-2-ynecarboxylic acid derivatives” (Ciba Specialty Chemicals Corporation, priority 2000, dated 2004).
Read-outs that look alike come from different tables or passages of the source.

Tests used:
Assay in all cases: Minimum Inhibitory Concentration (MIC) in the agar incorporation test
Type in all cases: cell-based
[1] = system: Escherichia coli NCTC 8196; details: NCTC8196, Table 1, casein-soybean flour-peptone agar, 24 hours at 37° C., dilution series 1000 ppm to 10 ppm
Protocol: (§1) Determination of the Minimum Inhibitory Concentration (MIC) in the Agar Incorporation Test (MIC Test) [table] Test Principle 0.3 ml of each dilution step is mixed with 15 ml of still liquid nutrient medium. After the nutrient medium has solidified, 10 μl of each of the following organism dilutions of the test strains in 0.85% NaCl solution is dotted onto the agar medium: [table] The plates are incubated for 24 hours at 37° C. (A. niger 3 days at 28° C.) and then the highest dilution (lowest concentration) of the test substance at which no more growth is observed (corresponds to the MIC) is determined.

[2] = system: Pseudomonas aeruginosa CIP A-22; details: CIPA22, Table 1, casein-soybean flour-peptone agar, 24 hours at 37° C., dilution series 1000 ppm to 10 ppm
Protocol: as §1

[3] = system: Candida albicans ATCC 10231; details: ATCC10231, Table 1, casein-soybean flour-peptone agar, 24 hours at 37° C., dilution series 1000 ppm to 10 ppm
Protocol: as §1

[4] = system: Staphylococcus aureus ATCC 9144; details: 24 hours at 37° C.
Protocol: as §1

[5] = system: Aspergillus niger ATCC 6275; details: ATCC6275, 72 h, 3 days at 28° C.
Protocol: as §1

[6] = ATCC9144, Table 2, MIC test, read-out: Further microbiological test results, Staphylococcus aureus ATCC 9144
[7] = Table 2, MIC test, read-out: Further microbiological test results, Aspergillus niger ATCC 6275

MIC [4, 6]	MIC [5, 7]	Structure (SMILES)	also measured
–	–	COC(=O)CC#CCN(C)c1ccccc1 [Compound of formula (101), 4-(N-methyl-phenylamino)-but-2-yne-carboxylic Acid Methyl Ester]	MIC [1]: 125 µg/mL; MIC [2]: > 1000 µg/mL; MIC [3]: 62.5 µg/mL; MIC ([4]; ATCC9144, Table 1, casein-soybean flour-peptone agar, dilution series 1000 ppm to 10 ppm, read-out: Minimum Inhibitory Concentration (MIC), Staphylococcus aureus ATCC 9144): 62.5 µg/mL; MIC ([5]; Table 1, Sabouraud 4% glucose-agar, dilution series 1000 ppm to 10 ppm, read-out: Minimum Inhibitory Concentration (MIC), Aspergillus niger ATCC 6275): 62.5 µg/mL
125 µg/mL	125 µg/mL	CCCN(CC#CC(=O)OC)c1cccc(C)c1 [Compound of formula (106)]	–
63 µg/mL	63 µg/mL	CCCCN(CC#CC(=O)OC)c1ccccc1 [Compound of formula (107)]	–
63 µg/mL	125 µg/mL	CCCN(CC#CC(=O)OC)c1cccc(OC)c1 [Compound of formula (108)]	–
1000 µg/mL	–	CCCN(CC#CC(=O)OCC)c1cccc(OC)c1 [Compound of formula (109)]	–
63 µg/mL	125 µg/mL	CCCCCN(CC#CC(=O)OC)c1ccccc1 [Compound of formula (110)]	–
63 µg/mL	–	CCCN(CC#CC(=O)OC)c1ccc(OC)cc1 [Compound of formula (111)]	–
63 µg/mL	–	CCCCCN(CC#CC(=O)OC)c1cccc(OC)c1 [Compound of formula (112)]	–
125 µg/mL	–	CCCCN(CC#CC(=O)OC)c1cccc(C)c1 [Compound of formula (113)]	–
60 µg/mL	60 µg/mL	CCN(CC#CC(=O)OC)c1ccc(OC)cc1 [Compound of formula (114)]	–
–	8 µg/mL	CCN(CC#CC(=O)OC)c1cccc(C)c1 [Compound of formula (115)]	–
125 µg/mL	125 µg/mL	CCOC(=O)C#CCNc1ccccc1 [Compound of formula (116)]	–
500 µg/mL	500 µg/mL	CCOC(=O)C#CCNc1ccc(OC)cc1 [Compound of formula (117)]	–
125 µg/mL	125 µg/mL	COC(=O)C#CCNc1ccc(C)cc1 [Compound of formula (118)]	–
